Laboratory results taken from patent publication US20260374769A1, “Crystalline Forms Of An Imidazopyridine Derivative” (Arisan Therapeutics Inc., priority 2023, published 2026).
Converted amounts (≈) assume the structure as drawn.

How the values were obtained:
human CB1R = target: T1, human CB1R (Homo sapiens, UniProt P21554); experiment: CB1R Human Cannabinoid GPCR Cell Based Antagonist cAMP Assay (HTRF, CHO-K1 cells, CP55940 EC80); conditions: antagonist mode, CP55940 EC80, 20 uM forskolin, read-out: IC50 functional activity of CB1R
T1 construct: expressed in transfected cells; host or cells: CHO-K1
Protocol: CB1R Human Cannabinoid GPCR Cell Based Antagonist cAMP Assay
Evaluation of the potency (IC50) of Compound 1 for the human CB1R in stably transfected CHO-K1 cells was determined in a cAMP cell based assay using HTRF detection method. Cells were seeded in a total volume of 20 μL into white walled, 384-well microplates and incubated at 37 °C overnight prior to testing. Prior to testing cell plating media was exchanged with 10 μL of Assay buffer (HBSS+10 mM HEPES). Briefly, intermediate dilution of sample stocks was performed in assay buffer to generate a sample at 4× the final testing concentration. 5 μL of 4× sample was added to cells and incubated at 37 °C for 30 minutes. 5 μL of CP55940 at 4× the final EC80 concentration in 4× forskolin reagent (at 80 uM) was added and cells incubated for 37 °C for 30 minutes. The final concentration of forskolin in the assay was 20 uM. Final assay vehicle concentration was 1%. The results are expressed as a percent inhibition of CP55940 in antagonist mode.

obese C57BL/6J DIO mice = experiment: Mouse DIO Obesity Study (four weeks, oral once a day); format: in vivo; conditions: 4 weeks
Protocol: To determine if Compound 1 might have anti-obesity activity through CB1R antagonism a four week in vivo study in obese C57BL/6J DIO mice was initiated to investigate weight gain, food intake and fasting blood glucose levels (see Table 62 for experimental design). A GMP lot of Compound 1 at different doses was evaluated and compared to DIO mice dosed with vehicle alone. The compound was formulated as a homogenous suspension with Vitamin-E-TPGS, PEG400, Glycerol, Methylcellulose, 10 mM Sodium Citrate buffer pH6 and water. Animals were orally gavaged once-a-day with either test article or vehicle for 4 weeks.

rats = experiment: 28-day GLP rat toxicity study; format: in vivo
Text: The same suspension formulation used in the mouse obesity model was used for the rat GLP toxicity study.

[1] = Hygroscopicity and sorption by DVS; format: physicochemical
Protocol: The hygroscopicity and the sorption properties of polymorphic Form A of Compound 1 were assessed using DVS.

[2] = Approximate solubility at room temperature in various solvents; format: physicochemical
[3] = Solubility in water and biorelevant media; format: physicochemical; conditions: room temperature
[4] = Water activity experiments (IPA/H2O); format: physicochemical
[5] = Slurry at room temperature (solid form after three days); format: physicochemical
Protocol: Slurry experiments were conducted at room temperature in various solvent systems. […] After the suspension was stirred magnetically for three days at room temperature, the remaining solids were isolated for XRPD analysis (Table 14).

[6] = Slurry at 50 °C (solid form after two days); format: physicochemical
Protocol: Slurry experiments were conducted at 50 °C in various solvent systems. […] After the suspension was stirred magnetically for two days at 50 °C, the remaining solids were isolated for XRPD analysis (Table 15).

[7] = Solid vapor diffusion (solid form after seven days at RT); format: physicochemical
Protocol: Solid vapor diffusion experiments were conducted using various solvents. […] The 20-mL vial was then sealed with a cap and kept at RT for seven days allowing solvent vapor to interact with sample. The remaining solids were isolated for XRPD analysis (Table 16).

[8] = Excipient compatibility study (4 weeks at 50 °C/75% RH); format: physicochemical
Protocol: The mixtures were placed in open containers and stored at 50 °C and 75% Relative Humidity (RH) for 4 weeks.

CB1R = conditions: cited from earlier work

T1 sequence (P21554 whole entry): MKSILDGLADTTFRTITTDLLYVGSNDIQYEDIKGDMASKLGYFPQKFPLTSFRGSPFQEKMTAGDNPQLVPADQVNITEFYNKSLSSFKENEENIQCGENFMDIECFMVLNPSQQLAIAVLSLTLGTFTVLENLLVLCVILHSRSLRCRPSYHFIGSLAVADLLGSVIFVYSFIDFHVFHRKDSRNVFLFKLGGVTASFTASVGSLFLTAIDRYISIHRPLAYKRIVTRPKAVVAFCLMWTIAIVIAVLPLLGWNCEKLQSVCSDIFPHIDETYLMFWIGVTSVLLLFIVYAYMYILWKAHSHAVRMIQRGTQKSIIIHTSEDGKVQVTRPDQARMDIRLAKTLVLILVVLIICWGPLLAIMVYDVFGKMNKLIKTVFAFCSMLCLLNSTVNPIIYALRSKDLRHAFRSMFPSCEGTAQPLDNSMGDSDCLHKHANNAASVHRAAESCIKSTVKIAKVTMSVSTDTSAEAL

For `Cc1cc2ncc(-c3ccc(OC(C)(C)C)cc3)n2cc1-c1ccc(OC(C)C)cc1` [Compound 1, 3-(4-(tert-butoxy)phenyl)-6-(4-isopropoxyphenyl)-7-methylimidazo[1,2-a]pyridine], the IC50 (human CB1R) was 3.8 µM, the “food intake vs vehicle” value (obese C57BL/6J DIO mice; 30 mg/kg/day) was “significantly lower” and the “body weight vs vehicle” value (obese C57BL/6J DIO mice; 10 and 30 mg/kg/day) was “significant decreases in body weight”. The “fasting blood glucose vs vehicle” value (obese C57BL/6J DIO mice; oral once-a-day, FIG. 16) was “no significant effect on fasting blood glucose”, the “percent weight gain vs vehicle” value (obese C57BL/6J DIO mice; oral once-a-day, group 4 and 5, FIG. 15) was “significant dose-dependent drop in percent weight gain” and the “food intake vs vehicle” value (obese C57BL/6J DIO mice; oral once-a-day, group 5, FIG. 15) was “significant reduced food intake”. The “mean cholesterol vs vehicle” value (rats; 28-day GLP rat toxicity study, FIG. 17) was “significant dose-dependent decreases in mean cholesterol”, the cholesterol levels (rats; all doses tested including 10, 30 and 50 mg/kg/day, 28-day) was “significantly reduced” and the “CNS effect (functional observational battery)” value (rats; rat 28-day GLP toxicity study) was “no evidence of CNS effect”.

With `Cc1cc2ncc(-c3ccc(OC(C)(C)C)cc3)n2cc1-c1ccc(OC(C)C)cc1` [Polymorphic Form A of Compound 1, 3-(4-(tert-butoxy)phenyl)-6-(4-isopropoxyphenyl)-7-methylimidazo[1,2-a]pyridine] the “weight increase (DVS)” value ([1]; 80% RH) was ~ 0.28%, the “weight increase (DVS)” value ([1]; 95% RH) was “less than 0.5%” and the hygroscopicity ([1]; DVS) was “slightly hygroscopic”. The solubility ([2]; organic solvent or mixture, 1-4-dioxane) was greater than 60 mg/mL, the solubility ([2]; organic solvent or mixture, 1-Butanol) was greater than 60 mg/mL and the solubility ([2]; organic solvent or mixture, 2-MeTHF) was greater than 56 mg/mL. For the same compound, the solubility ([2]; organic solvent or mixture, 2 butanol) was greater than 54 mg/mL, the solubility ([2]; organic solvent or mixture, Acetone) was greater than 56 mg/mL and the solubility ([2]; organic solvent or mixture, Acetonitrile) was 28 to 56 mg/mL (≈ 67.5 to 135 mM). For the same compound, the solubility ([2]; organic solvent or mixture, CPME) was greater than 46 mg/mL, the solubility ([2]; organic solvent or mixture, DCM) was greater than 48 mg/mL and the solubility ([2]; organic solvent or mixture, DMF) was greater than 60 mg/mL. It also gave a solubility ([2]; organic solvent or mixture, DMSO) of 8 to 24 mg/mL (≈ 19.3 to 57.9 mM), a solubility ([2]; organic solvent or mixture, EtOH) greater than 48 mg/mL and a solubility ([2]; organic solvent or mixture, IPAC) greater than 48 mg/mL. The solubility ([2]; organic solvent or mixture, Isopropanol) was greater than 52 mg/mL, the solubility ([2]; organic solvent or mixture, MEK) was greater than 52 mg/mL and the solubility ([2]; organic solvent or mixture, MIBK) was greater than 50 mg/mL. The solubility ([2]; organic solvent or mixture, MTBE) was 28 to 56 mg/mL (≈ 67.5 to 135 mM), the solubility ([2]; organic solvent or mixture, MeOH) was greater than 48 mg/mL and the solubility ([2]; organic solvent or mixture, THF) was greater than 50 mg/mL. It also gave a solubility ([2]; organic solvent or mixture, Toluene) greater than 46 mg/mL, a solubility ([2]; organic solvent or mixture, n-Heptane) of 2.8 to 9.3 mg/mL (≈ 6.75 to 22.4 mM) and a solubility ([2]; organic solvent or mixture, n-Propanol) greater than 52 mg/mL. For the same compound, the solubility ([2]; water, H2O) was less than 2.4 mg/mL, the solubility at 24 h ([3]; FaSSIF, pH 6.73) was 0.041 mg/mL (≈ 0.0989 mM) and the solubility at 24 h ([3]; FeSSIF, pH 5.07) was 0.224 mg/mL (≈ 0.54 mM). The solubility at 24 h ([3]; Simulated Gastric Fluid (SGF), pH 2.38) was 0.532 mg/mL (≈ 1.28 mM), the solubility at 24 h ([3]; Water, pH 6.63) was less than 0.0125 mg/mL and the “Solid Form” value ([4]; H2O aw = 1) was “Form A”. The “Solid Form” value ([4]; IPA/H2O aw = 0.2, 982/18) was “Form A”, the “Solid Form” value ([4]; IPA/H2O aw = 0.4, 956/44) was “Form A + B” and the “Solid Form” value ([4]; IPA/H2O aw = 0.6, 919/81) was “Form C”. For the same compound, the “Solid Form” value ([4]; IPA/H2O aw = 0.8, 847/153) was “Form C”, the “Solid Form” value ([5]; RT, 1,4 Dioxane:H2O (3:7)) was “Form A” and the “Solid Form” value ([5]; RT, ACN) was “Form A”. For the same compound, the “Solid Form” value ([5]; RT, ACN:H2O (4:6)) was “Form A”, the “Solid Form” value ([5]; RT, DCM:n-Heptane (2:8)) was “Form A” and the “Solid Form” value ([5]; RT, DMF:H2O (3:7)) was “Form B”. The “Solid Form” value ([5]; RT, DMSO) was “Form A”, the “Solid Form” value ([5]; RT, DMSO:H2O (4:6)) was “Form B” and the “Solid Form” value ([5]; RT, EtOH:n-Heptane (2:8)) was “Form C”. The “Solid Form” value ([5]; RT, H2O) was “Form A”, the “Solid Form” value ([5]; RT, MEK:n-Heptane (2:8)) was “Form A” and the “Solid Form” value ([5]; RT, MTBE) was “Form A”. For the same compound, the “Solid Form” value ([5]; RT, MTBE:n-Heptane (3:7)) was “Form D”, the “Solid Form” value ([5]; RT, THF:n-Heptane (2:8)) was “Form A” and the “Solid Form” value ([5]; RT, n-Heptane) was “Form A”. The “Solid Form” value ([6]; ACN) was “Form A”, the “Solid Form” value ([6]; ACN:H2O (1:1)) was “Form E” and the “Solid Form” value ([6]; DMSO) was “Amorphous”. For the same compound, the “Solid Form” value ([6]; DSMO:H2O (1:1)) was “Amorphous”, the “Solid Form” value ([6]; EtOH:H2O (1:1)) was “Form E” and the “Solid Form” value ([6]; H2O) was “Form A”. For the same compound, the “Solid Form” value ([6]; H2O:Acetone (7:3)) was “Form B”, the “Solid Form” value ([6]; H2O:EtOH (6:4)) was “Form B, Low Crystalline” and the “Solid Form” value ([6]; H2O:MeOH (7:3)) was “Form A”. For the same compound, the “Solid Form” value ([6]; H2O:THF (7:3)) was “Form A”, the “Solid Form” value ([6]; H2O:n-Propanol (6:4)) was “Form B, Peak Missing at 2-” and the “Solid Form” value ([6]; MTBE) was “Form A”. For the same compound, the “Solid Form” value ([6]; n-Heptane) was “Form A”, the “Solid Form” value ([6]; n-Heptane:1,4-dioxane (19:1)) was “Gel” and the “Solid Form” value ([6]; n-Heptane:Acetone (19:1)) was “Form A”. The “Solid Form” value ([6]; n-Heptane:IPA (19:1)) was “Form B”, the “Solid Form” value ([6]; n-Heptane:Toluene (19:1)) was “Form A” and the “Solid Form” value ([7]; 2-MeTHF vapor) was “Gel”. The “Solid Form” value ([7]; Acetone vapor) was “Form A”, the “Solid Form” value ([7]; CPME vapor) was “Form D” and the “Solid Form” value ([7]; EtOH vapor) was “Form F”. For the same compound, the “Solid Form” value ([7]; IPA vapor) was “Form A”, the “Solid Form” value ([7]; MEK vapor) was “Gel” and the “Solid Form” value ([7]; MTBE vapor) was “Form A”. The “Solid Form” value ([7]; Toluene vapor) was “Form A”, the “Solid Form” value ([7]; n-Propanol vapor) was “Form A, Low Crystalline” and the excipient compatibility [8] was “compatible with all excipients and blends in Table 22”. For the same compound, the Appearance ([8]; open containers) was “White granular powder” and the degraded at 672 h ([8]; open containers, read-out: Total Related Substances) was 0.3%.

For `Cc1c(C(=O)NN2CCCCC2)nn(-c2ccc(Cl)cc2Cl)c1-c1ccc(Cl)cc1` [Rimonabant], the “cardiometabolic parameters (waist circumference, hemoglobin A1c, HDL, plasma cholesterol, triglycerides)” value (CB1R; clinical trials, obese people) is listed as “improved multiple cardiometabolic parameters”, the weight loss (CB1R; clinical trials, obese people) is listed as “weight loss in obese people” and the neuropsychiatric side-effects (CB1R; clinical use) is listed as “withdrawn from clinical use due to its neuropsychiatric side-effects”.
